The test system of one assay is MET. Put plainly: MET biochemical kinase assay. Further details: species or system human; concentration or dose not given beside the values. The method in brief:
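Human MET was captured from cell lysates onto ELISA plates via goat anti-rabbit Fc and rabbit polyclonal antibody to the MET cytoplasmic domain. After washing, test compounds and kinase buffer with ATP and divalent metal ions were added. Phosphotyrosine was detected with HRP-conjugated anti-phosphotyrosine antibody and TMB colorimetric read-out.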

In another assay the target is T1, FLK-1 receptor (Mus musculus, UniProt P35918).
T1 construct: expressed in transfected cells; host or cells: NIH3T3 C7#3
T1 sequence (P35918 20-1345): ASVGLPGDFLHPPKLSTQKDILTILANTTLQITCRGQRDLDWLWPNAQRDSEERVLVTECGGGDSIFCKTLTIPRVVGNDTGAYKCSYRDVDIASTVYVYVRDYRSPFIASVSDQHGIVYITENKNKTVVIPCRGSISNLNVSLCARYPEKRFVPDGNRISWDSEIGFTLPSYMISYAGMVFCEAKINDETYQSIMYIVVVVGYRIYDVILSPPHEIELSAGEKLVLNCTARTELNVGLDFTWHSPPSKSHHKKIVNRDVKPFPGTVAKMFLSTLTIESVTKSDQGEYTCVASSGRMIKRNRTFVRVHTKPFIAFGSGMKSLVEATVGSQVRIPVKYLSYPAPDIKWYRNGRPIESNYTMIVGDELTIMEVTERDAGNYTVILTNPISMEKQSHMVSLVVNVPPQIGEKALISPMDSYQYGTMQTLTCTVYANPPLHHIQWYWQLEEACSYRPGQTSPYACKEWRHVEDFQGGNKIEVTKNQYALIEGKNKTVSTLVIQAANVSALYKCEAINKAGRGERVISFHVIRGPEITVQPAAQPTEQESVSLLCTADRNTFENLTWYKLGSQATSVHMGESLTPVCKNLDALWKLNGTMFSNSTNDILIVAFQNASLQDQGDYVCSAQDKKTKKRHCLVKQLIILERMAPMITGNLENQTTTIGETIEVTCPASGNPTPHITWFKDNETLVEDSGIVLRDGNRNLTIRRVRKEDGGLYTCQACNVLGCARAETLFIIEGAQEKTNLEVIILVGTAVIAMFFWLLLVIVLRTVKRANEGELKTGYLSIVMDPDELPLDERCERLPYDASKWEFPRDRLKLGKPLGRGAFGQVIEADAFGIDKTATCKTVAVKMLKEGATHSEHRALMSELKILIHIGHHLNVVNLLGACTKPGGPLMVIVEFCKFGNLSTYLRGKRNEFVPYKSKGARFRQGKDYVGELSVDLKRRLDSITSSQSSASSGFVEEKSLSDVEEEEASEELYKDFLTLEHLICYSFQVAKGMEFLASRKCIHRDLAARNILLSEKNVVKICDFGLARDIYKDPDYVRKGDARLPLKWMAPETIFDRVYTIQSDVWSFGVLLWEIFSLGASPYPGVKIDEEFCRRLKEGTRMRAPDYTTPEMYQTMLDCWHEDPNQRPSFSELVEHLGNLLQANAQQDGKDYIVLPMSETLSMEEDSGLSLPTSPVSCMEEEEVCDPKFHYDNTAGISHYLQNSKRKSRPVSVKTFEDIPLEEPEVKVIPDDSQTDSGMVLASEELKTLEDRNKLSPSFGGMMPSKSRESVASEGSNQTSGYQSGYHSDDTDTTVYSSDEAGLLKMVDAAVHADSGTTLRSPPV
The assay can be described thus: FLK-1 ELISA (kinase activity of the FLK-1 receptor in FLK-1/NIH3T3 cells, VEGF stimulated). In kind it is cell-based. The essentials:
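NIH3T3 C7#3 cells expressing FLK-1 were seeded at 25.000 cells/well, serum-starved overnight in 0.1% FBS, then treated with compound for two hours at 37°C (final DMSO 0.5%) before VEGF stimulation. Receptor was captured on anti-rabbit IgG-coated ELISA plates bearing affinity-purified anti-FLK-1 antiserum.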
(In general: ELISA stands for enzyme-linked immunosorbent assay.)

Another assay concerns the target PDGF-R (Homo sapiens, UniProt P09619). Put plainly: PDGF-R ELISA. In kind it is cell-based. An excerpt: A PDGF-R ELISA is described in International Patent Publication No. WO 96/40116, published December 19, 1996 by Tang et al.

Molecules are shown by their SMILES.

Sequence of PDGF-R (P09619 33-1106, species assumed): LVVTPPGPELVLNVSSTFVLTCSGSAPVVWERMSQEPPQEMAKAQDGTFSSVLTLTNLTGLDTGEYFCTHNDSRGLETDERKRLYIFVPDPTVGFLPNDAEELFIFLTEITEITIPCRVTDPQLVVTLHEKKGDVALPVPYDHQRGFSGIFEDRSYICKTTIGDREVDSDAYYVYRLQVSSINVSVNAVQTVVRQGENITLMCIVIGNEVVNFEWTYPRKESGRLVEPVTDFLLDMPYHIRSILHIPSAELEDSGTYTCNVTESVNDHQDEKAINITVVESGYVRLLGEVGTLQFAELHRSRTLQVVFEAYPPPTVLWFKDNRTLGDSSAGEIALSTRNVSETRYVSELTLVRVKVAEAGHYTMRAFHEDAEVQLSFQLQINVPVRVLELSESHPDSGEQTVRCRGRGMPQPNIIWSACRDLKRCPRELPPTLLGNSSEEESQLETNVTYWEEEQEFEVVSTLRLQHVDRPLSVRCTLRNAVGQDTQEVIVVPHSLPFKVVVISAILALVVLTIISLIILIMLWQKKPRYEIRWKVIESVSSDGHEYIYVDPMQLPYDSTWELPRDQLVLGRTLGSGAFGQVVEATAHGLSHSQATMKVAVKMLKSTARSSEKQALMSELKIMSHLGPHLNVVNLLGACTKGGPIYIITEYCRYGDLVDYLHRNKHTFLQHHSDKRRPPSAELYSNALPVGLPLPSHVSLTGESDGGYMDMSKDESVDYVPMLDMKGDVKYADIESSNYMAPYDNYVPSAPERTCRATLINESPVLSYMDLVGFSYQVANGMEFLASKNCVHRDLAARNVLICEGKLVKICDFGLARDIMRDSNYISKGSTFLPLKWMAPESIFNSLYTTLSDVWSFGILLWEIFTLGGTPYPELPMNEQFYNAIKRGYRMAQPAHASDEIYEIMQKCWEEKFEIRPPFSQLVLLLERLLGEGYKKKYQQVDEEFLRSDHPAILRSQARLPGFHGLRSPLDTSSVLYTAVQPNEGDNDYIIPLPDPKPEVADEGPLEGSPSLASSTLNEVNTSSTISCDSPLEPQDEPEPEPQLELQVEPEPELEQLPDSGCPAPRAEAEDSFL

Take `COc1c(O)ccc(C=C2C(=O)Nc3ccc(Br)c(C)c32)c1[N+](=O)[O-]` [10733/C11]: the “Met Kinase % Inhibition” value with MET stood at 35.1%. Moreover, on FLK-1 receptor, the “Fik Kinase %Inhibition” value is 42.8%. Moreover, the “PDGF Kinase %Inhibition” value on PDGF-R was 62.2%.
The like results for `CNS(=O)(=O)c1ccc2c(c1)C(=Cc1cc(I)c(OCc3ccccc3)c(C(C)(C)C)c1)C(=O)N2` [10733/D02] were, in that order, 63.4%, 3.1% and 17.6%.
The like results for `CNS(=O)(=O)c1ccc2c(c1)C(=Cc1cc([N+](=O)[O-])c(OC)c(C(C)(C)C)c1)C(=O)N2` [10733/D03] were, in that order, 32.8%, 33.2% and 40.7%.
The like results for `CNS(=O)(=O)c1ccc2c(c1)C(=Cc1cc(C(C)(C)C)c(OC)c(C(C)(C)C)c1)C(=O)N2` [10733/D04] were, in that order, 37.7%, 15.5% and 26.5%.
Regarding `CNS(=O)(=O)c1ccc2c(c1)C(=Cc1cc(C(C)(C)C)c(OCc3ccccc3)c(C(C)(C)C)c1)C(=O)N2` [10733/D05], in the assay on MET, the “Met Kinase % Inhibition” value turned out to be 25.1%. Also, the “Fik Kinase %Inhibition” value on FLK-1 receptor was 16.5%. Further, on PDGF-R, the “PDGF Kinase %Inhibition” value is 16.8%.
For `CNS(=O)(=O)c1ccc2c(c1)C(=Cc1cc(C)c(OC)c(C)c1)C(=O)N2` [10733/D06], in that order: -19.4%, 17.9% and 1.3%.
For `CNS(=O)(=O)c1ccc2c(c1)C(=Cc1cc(C)c(OCc3ccccc3)c(C)c1)C(=O)N2` [10733/D07], in that order: -6.8%, -1.4% and 0.9%.
The like results for `CNS(=O)(=O)c1ccc2c(c1)C(=Cc1cc(Br)cc(OC)c1O)C(=O)N2` [10733/D08] were, in that order, 80.0%, -8.3% and 42.3%.
On to `CNS(=O)(=O)c1ccc2c(c1)C(=Cc1cc(Br)ccc1O)C(=O)N2` [10733/D09], for which the “Met Kinase % Inhibition” value in the assay on MET is 38.7%. The “Fik Kinase %Inhibition” value at FLK-1 receptor came to 9.8%. The “PDGF Kinase %Inhibition” value on PDGF-R is reported as 33.8%.
Turning to `CNS(=O)(=O)c1ccc2c(c1)C(=Cc1cc([N+](=O)[O-])ccc1O)C(=O)N2` [10733/D10], in the assay on MET, the “Met Kinase % Inhibition” value was determined as 22.8%. Besides, the “Fik Kinase %Inhibition” value at FLK-1 receptor is 2.9%. Also, the “PDGF Kinase %Inhibition” value at PDGF-R is reported as -10.1%.
The like results for `CNS(=O)(=O)c1ccc2c(c1)C(=Cc1ccc(O)c(OC)c1[N+](=O)[O-])C(=O)N2` [10733/D11] were, in that order, 31.6%, 1.0% and -4.0%.
Take `CC(C)(C)c1cc(C=C2C(=O)Nc3ccc(S(=O)(=O)Nc4ccc(C(F)(F)F)cc4)cc32)cc(I)c1OCc1ccccc1` [10733/E02]: the “Met Kinase % Inhibition” value in the assay on MET came to 60.5%. Further, the “Fik Kinase %Inhibition” value at FLK-1 receptor came out at 0.8%. Besides, the “PDGF Kinase %Inhibition” value at PDGF-R is 20.8%.
